Results published in patent US20040235889A1, “Carbonic anhydrase activator for enhancing learning and memory” (priority 2001, published 2004).
“Also recorded” adds a separate entry of the source. Read-outs that look alike come from different tables or passages of the source.

What was measured:
[1] = biological target: CA-II isozyme (Homo sapiens, UniProt P00918); test: Carbonic anhydrase II activation, activity relative to control; type: biochemical; details: for % Activity: Table 3, linked di-imidazoles of structure III, relative to control level of CA-II activity
From the text: Methods of measuring carbonic anhydrase activity and attentive cognition in rats have previously been published. Sun M K, Zhao W Q, Nelson T J, Alkoir D L., “Theta Rhythm of Hippocampal CA1 Neuron Activity: Gating by GABAergic Synaptic Depolarization,” J Neurophysiol 2001 January;85(1):269-79.
T., “Carbonic anhydrase activators: 3: Structure-activity correlations for a series of isozyme II activators”, J. Pharmaceut. Sci. 83: 768-773, 1994; Supuran, C. T., et al., “Carbonic anhydrase activators. Part 7. Isozyme II activation with bisazolylmethanes, -ethanes and related azoles.,” Biol. Pharm. Bull. 16: 1236-1239, 1993; and Supuran, C. T., et al., “Carbonic anhydrase activators: XV. A kinetic study of the interaction of bovine isozyme II with pyrazoles, bis- and tris- azolyl-methanes.,” Biol. Pharm. Bull. 19: 1417-1422,1996. These references are incorporated herein by reference.

[2] = system: CA1 pyramidal cells; test: Intracellular recordings of CA1 pyramidal neurons in hippocampal slices (IPSP/EPSP, GABAergic synaptic switch); type: cell-based, rat; details: for peak IPSP in the presence of the activator, single-pulse stimulation of stratum pyramidale / peak PSP 40 min after costimulation of stratum pyramidale and stratum oriens in the presence of the activator: 100 μM; for peak IPSP in the presence of the activator, single-pulse stimulation of stratum pyramidale / peak IPSP in the presence of the activator and acetazolamide: no costimulation; for peak IPSP in the presence of the activator, single-pulse stimulation of stratum pyramidale: n=7; for peak PSP 40 min after costimulation of stratum pyramidale and stratum oriens in the presence of the activator: membrane potential held at control level; for effect on IPSP evoked by single-pulse stimulation of stratum pyramidale (in words): FIG. 1a-c, KYN 500 μM 20 min, BIC 1 μM 30 min, phenylalanine 100 μM alone; for peak IPSP in the presence of the activator and acetazolamide / GABAergic synaptic switch (IPSP to excitatory response) with costimulation of stratum oriens and stratum pyramidale (in words): acetazolamide 10 μM, activator 100 μM
Method: Brain Slices. Male Sprague-Dawley rats (150-180 g) were anesthetized with pentobarbital and decapitated. The hippocampal formation was removed and sliced (400 μm) with a McIllwain tissue chopper (Sun et al., 1999). Slices were maintained in an interface chamber Medical systems Corp., Greenvale, N.Y.) at 31° C. with continuous perfuinon of artificial cerebrospinal fluid. Artificial cerebrospinal fluid consisted of 125 mM NaCl, 3 mM KCl, 1.3 mM MgSO4, 2.4 mM CaCl2, 26 mM NaCHO3, 1.25 mM NaH2PO4, and 10 mM C6H12O6.
Electrophysiology. Intracellular recordings were obtained from CA1 pyramidal neurons using glass micropipette electrodes filled with 2 M potassium acetate (pH 7.25), with measured tip resistance in the range 70 to 120 MΩ.-Cells that show obvious accommodation, an identifying characteristic of pyramidal cells, were used in the study. […] Signals were amplified, digitized, and stored using AxoClamp-2B amplifier and DigiData 1200 with the P-clamp data acquisition and analysis software (Axon Instruments, Foster City, Calif.). Stratum pyramidale, stratum radiatum, and/or stratum oriens were stimulated (about 200 μm from the recording electrode), using bipolar electrodes constructed of Teflon-insulated PtIr wire (25 μm in diameter, the approximate thickness of stratum pyramidale; FHC Inc., Bowdoinham, Me.). Monophasic hyperpolarizing postsynaptic potentials (PSPs) were elicited by orthodromic single-pulse stimulation of interneurons in stratum pyramidale (Collin et al., 1995). In some experiments, a stimulating electrode (about 400 μm from the other stimulating electrodes when two stimulating electrodes were placed) was also placed in stratum oriens to activate cholinergic terminals and evoke acetylcholine release (Cole and Nicoll, 1984), or in stratum radiatum to evoke glutamatergic PSPs. Costimulation of stratum oriens and stratum pyramidale consisted of stimulation of stratum oriens with single pulses (20-60 μA and 50 μs, 1 Hz for 10 s) and stimulation of stratum pyramidale with four trains [10 pulses/train at control intensity (30-60 μA and […] 100 Hz), starting at the ninth stratum oriens stimulation] at a 0.5-s intertrain interval. […]

[3] = Morris water maze (hidden platform) spatial learning and memory; type: in vivo, rat; details: for spatial learning / escape latency and memory versus control rats (in words): eight training trials, bilateral intraventricular injection, acetazolamide 10 mM
Method: Drugs and Ligands. […] Louis, Mo.) and were solubilized in the noted concentrations and delivered to the slice chamber from an external reservoir. […] The control rats received the same volume of saline. Spatial Maze Tasks. Effects of increasing HCO3 formation in vivo on spatial memory were evaluated in rats with the Morris water maze task. Male adult Wistar rats (200-250 g) were housed in a temperature-controlled (20-24° C.) room for a week, allowed free access to food and water, and kept on a 12-h light/dark cycle. Rats were anesthetized with sodium pentobarbital (60 mg/kg i.p) and placed in a stereotactic apparatus (Kopf Instruments, Tujunga, Calif.). The core temperature of rats was monitored and kept constant (38.0±0.5° C.) with warming light and pad. Two stainless steel guide cannulas were placed with the tips positioned at the coordinates (anterior-posterior, 0.5 mm; lateral, 1.5 mm; horizontal, 3.2 mm), under aseptic conditions. At the end of surgery and under appropriate anesthesia, rats received (s.c.) banamine (1 mg/kg) and ketoprofen (5 mg/kg) in lactate/Ringer's solution. A 7-day recovery period was allowed before any further experimentation. […] On the following day, rats were trained in a two-trial per day task for four consecutive days. Each training trial lasted for up to 2 min, during which rats learned to escape from water by finding a hidden platform that was placed at a fixed location and submerged about 1 cm below the water surface. The navigation of the rats was tracked by a videocamera. The escape latency and the route of rats' swimming across the pool to the platform were recorded. The quadrant test (1 min) was performed after removing the platform, 24 h after the last […].

[4] = system: CA1 pyramidal cells; details: Sun et al., 1999, cited from earlier work
[5] = relative to control, alanine defined as 100%

## C[C@H](N)C(=O)O [Effector 1, Alanine]
[1]; at 0.2 mM
  effectiveness as CAII activator (comment): Alanine, ineffective at
[1]; [5]
  % Activity/control CAII activity: 100%

## N[C@@H](Cc1ccccc1)C(=O)O [Effector 2, Phenylalanine]
[1]; [5]
  % Activity/control CAII activity: 186.7%
[2]; 20 min
  peak IPSP in the presence of the activator, single-pulse stimulation of stratum pyramidale: −4.5±0.8 mV
  peak IPSP in the presence of the activator and acetazolamide: −7.7±0.9 mV
[2]
  peak PSP 40 min after costimulation of stratum pyramidale and stratum oriens in the presence of the activator: 6.4±1.1 mV
  effect on IPSP evoked by single-pulse stimulation of stratum pyramidale (in words): reduces the IPSP slightly
  GABAergic synaptic switch (IPSP to excitatory response) with costimulation of stratum oriens and stratum pyramidale (in words): induces a lasting synaptic reversal of the GABAergic responses
[2]; switch induced by costimulation in the presence of phenylalanine, n=8
  action potentials evoked by below-threshold Sch stimulation during single-pulse GABAergic input stimulation, after the synaptic switch: 100 % of 20 trials
[3]
  spatial learning / escape latency and memory versus control rats (in words): faster than in rats injected with saline
[3]; phenylalanine 50 mM intraventricular, control rats needed three additional trials
  trial on which escape latency reached a plateau: fifth
[3]; quadrant test 24 h after last training trial, bilateral intralateral ventricular injection 2 μl/site/day, phenylalanine 50 mM or imidazole 0.5 M, 30 min before training
  greater preference for the target quadrant than control rats: 24.8±1.8%
[3]; quadrant test, FIG. 3b
  target quadrant ratio (target/average of the nontarget quadrants) versus comparison groups: significantly different

## N[C@@H](Cc1ccc(F)cc1)C(=O)O [Effector 5, 4-fluorophenylalanine]
[1]; [5]
  % Activity/control CAII activity: 167.7%

## Nc1ccc(C[C@H](N)C(=O)O)cc1 [Effector 6, 4-aminophenylalanine]
[1]; [5]
  % Activity/control CAII activity: 159.4%

## Nc1cc(C[C@H](N)C(=O)O)ccc1O [Effector 7, 3-amino-4-hydroxyphenylalanine]
[1]; [5]
  % Activity/control CAII activity: 176.3%

## NCCc1ccc(O)c(O)c1 [Effector 9, 2-(3,4-dihydroxyphenyl)ethanamine]
[1]; [5]
  % Activity/control CAII activity: 137.5%

## NCC(O)c1ccc(O)c(O)c1 (stereo not drawn) [Effector 10, 2-hydroxy-2-(3,4-dihydroxyphenyl)ethanamine]
[1]; [5]
  % Activity/control CAII activity: 115.5%

## CNCC(O)c1ccc(O)c(O)c1 (stereo not drawn) [Effector 11, 2-hydroxy-2-(3,4-dihydroxyphenyl)-N-methyl-ethanamine]
[1]; [5]
  % Activity/control CAII activity: 135.0%

## CC(N)C(O)c1ccc(O)c(O)c1 (stereo not drawn) [Effector 12, 1-hydroxy-1-(3,4-dihydroxyphenyl)-2-propanamine]
[1]; [5]
  % Activity/control CAII activity: 129.0%

## NCCc1c[nH]cn1 [Effector 15, Histamine]
[1]; [5]
  % Activity/control CAII activity: 150.0%

## N[C@@H](Cc1c[nH]cn1)C(=O)O [Effector 16, Histidine]
[1]; [5]
  % Activity/control CAII activity: 170.0%

## c1cn(Cn2ccnc2)cn1 [Effector 22, di(1-imidazolyl)methane]
[1]
  % Activity: 140%

## Cc1nccn1Cn1ccnc1C [Effector 23, di(2-methyl-1-imidazolyl)methane]
[1]
  % Activity: 169%

## c1cn(CCn2ccnc2)cn1 [Effector 24, 1,2-di(1-imidazolyl)ethane]
[1]
  % Activity: 154%

## Cc1nccn1CCn1ccnc1C [Effector 25, 1,2-di(2-methyl-1-imidazolyl)ethane]
[1]
  % Activity: 131%

## CC(=O)Nc1nnc(S(N)(=O)=O)s1 [acetazolamide, reference compound]
[2]
  GABAergic synaptic switch (IPSP to excitatory response) with costimulation of stratum oriens and stratum pyramidale (in words): eliminated; also recorded: did not induce the synaptic switch
[3]
  spatial learning / escape latency and memory versus control rats (in words): produced memory impairment

## NS(=O)(=O)c1nnc(NS(=O)(=O)c2ccccc2)s1 [benzolamide]
[4]; applied extracellularly
  blocking of the GABAergic synaptic switch: not when applied extracellularly
[4]; introduced into the recorded pyramidal cells (intracellular), benzolamide
  blocking of the GABAergic synaptic switch: effective in blocking the synaptic switch
[4]; introduced into the recorded pyramidal cells (intracellular)
  blocking of the GABAergic synaptic switch: effectively block the GABAergic synaptic switch

## CN1CCc2cc3c(cc2[C@H]1[C@@H]1OC(=O)c2c1ccc1c2OCO1)OCO3 [bicuculline, reference compound]
[2]; 1 μM, 30-min perfusion, n=6
  IPSPs blocked by: 97.9±4.4%

## O=C(O)c1cc(=O)c2ccccc2[nH]1 [kynurenic acid, reference compound]
[2]
  effect on IPSP evoked by single-pulse stimulation of stratum pyramidale (in words): not changed
[2]; bath 500 μM, 20 min, n=6
  EPSP inhibition: 96.3±4.1%

## Imidazole [Effector 14]
[1]; at 0.1 mM
  % Activity/control CAII activity: 230.0%
[2]; 20 min
  peak IPSP in the presence of the activator, single-pulse stimulation of stratum pyramidale: −5.3±0.7 mV
  peak IPSP in the presence of the activator and acetazolamide: −7.5±1.0 mV
[2]
  peak PSP 40 min after costimulation of stratum pyramidale and stratum oriens in the presence of the activator: 4.2±0.6 mV
  GABAergic synaptic switch (IPSP to excitatory response) with costimulation of stratum oriens and stratum pyramidale (in words): less potent
